Results on 5 compounds are retold here after patent US20260297060A1, “COMPOUNDS FOR THE DEGRADATION OF MUTANT BRAF” (C4 THERAPEUTICS, INC., priority 2023, published 2026).

Where two headings read alike, the source gives them in different places.

The nature of the data set: Example 9 pharmacokinetics assay for efficacy study Part I and II (plasma, liver). The following applies: mouse, po, 10 mg/kg, p.o., BID × 14 days, 6 h following treatment, ± SEM. The data set is classed as in vivo, BALB/c nude mice. How it is done:
For efficacy study Part I, agents were tested in the A375 human melanoma xenografts. Compound 218 and Compound 157 were administered to BALB/c nude mice bearing A375 xenografts from day 0 and dosed twice a day (BID) for 14 days. Compound 218 and Compound 157 were dosed at 10 mg/kg via p.o.. Dabrafenib was administered from day 1 daily (QD) for 14 days and dosed at 100 mg/kg via p.o..
For efficacy study Part II, agents were tested in the A375 human melanoma xenografts model. Compound 133, Compound 144 and Compound 198 were administered to BALB/c nude mice bearing A375 xenografts from day 0 and dosed twice a day (BID) for 14 days. Compound 133, Compound 144 and Compound 198 were dosed at 10 mg/kg via p.o..
The plasma samples were collected at predetermined time points for PK analysis. The mice were euthanized at predetermined time points post the treatment. The blood samples were collected into the 1.5 mL Eppendorf tubes containing 15 μL of 0.5 M EDTA-K2. And then the anticoagulant blood samples were centrifuged at 2,500 g at 4° C. for 15 minutes. The plasma samples were separated into 2 aliquots. The 1st was used for PK analysis, and the 2nd served as backup. The samples were stored at −80° C. before bioanalysis.
Liver samples were collected at predetermined time points for PK analysis. The left lobe of the liver was dissected out and split into 2 parts. The 1st part was used for PK analysis and the 2nd part served as the backup for the study. The samples were transferred into pre-labeled tubes and quickly froze in liquid nitrogen within 2 minutes after dissection. The samples were stored at −80° C. before bioanalysis.
The harvested plasma and liver samples were processed for pharmacokinetics analysis by LC-MS/MS with a concentration range of 1.00-1,000 ng/mL for Dabrafenib in plasma and liver homogenate, 10.0-10,000 ng/mL for Compound 218, Compound 157, Compound 133, Compound 144 and Compound 198 in plasma and liver homogenate.

Setting [1] is: liver, read-out: Mean Concentration in Liver.
[2] abbreviates: plasma, read-out: Mean Concentration in Plasma.

As for `CCN(C)S(=O)(=O)Nc1ccc(F)c(Oc2ccc3ncc(OC4CC5(CCN(C6CCC(c7cc8c(cc7F)c(N7CCC(=O)NC7=O)nn8C)CC6)CC5)C4)nc3c2)c1C#N` (single isomer, unassigned) [Compound 218, 7-[2-cyano-3-[[ethyl(methyl)sulfamoyl]amino]-6-fluoro-phenoxy]-2-[[7-[4-[3-(2,4-dioxohexahydropyrimidin-1-yl)-5-fluoro-1-methyl-indazol-6-yl]cyclohexyl]-7-azaspiro[3.5]nonan-2-yl]oxy]quinoxaline], the concentration at 6 h was determined as 5640 ± 588 ng/g under setting [1] and 2270 ± 201 ng/mL under setting [2].
Taken in the same sequence, the figures for `CCN(C)S(=O)(=O)Nc1ccc(F)c(Oc2ccc3ncn(C4CC5(CCN(C6CC7(CCN(c8cc9c(cc8F)c(N8CCC(=O)NC8=O)nn9C)CC7)C6)CC5)C4)c(=O)c3c2)c1C#N` (stereo not shown) [Compound 198, 6-[2-cyano-3-[[ethyl(methyl)sulfamoyl]amino]-6-fluoro-phenoxy]-3-[7-[7-[3-(2,4-dioxohexahydropyrimidin-1-yl)-5-fluoro-1-methyl-indazol-6-yl]-7-azaspiro[3.5]nonan-2-yl]-7-azaspiro[3.5]nonan-2-yl]-4-oxo-quinazoline] were 3320 ± 479 ng/g and 7640 ± 799 ng/mL.
Taken in the same sequence, the figures for `CO[C@@H]1CCN(S(=O)(=O)Nc2ccc(F)c(Oc3ccc4ncn([C@H]5COC6(CCN(C7CC8(C7)CN(c7cc9c(cc7F)c(N7CCC(=O)NC7=O)nn9C)C8)CC6)C5)c(=O)c4c3)c2C#N)C1` [Compound 144, (3R)-N-[2-cyano-3-[3-[(3R)-8-[2-[3-(2,4-dioxohexahydropyrimidin-1-yl)-5-fluoro-1-methyl-indazol-6-yl]-2-azaspiro[3.3]heptan-6-yl]-1-oxa-8-azaspiro[4.5]decan-3-yl]-4-oxo-quinazolin-6-yl]oxy-4-fluoro-phenyl]-3-methoxy-pyrrolidine-1-sulfonamide] were 2470 ± 252 ng/g and 14700 ± 2220 ng/mL.
On to `CO[C@H]1CCN(S(=O)(=O)Nc2ccc(F)c(Oc3ccc4ncn([C@H]5COC6(CCN(C7CC8(C7)CN(c7cc9c(cc7F)c(N7CCC(=O)NC7=O)nn9C)C8)CC6)C5)c(=O)c4c3)c2C#N)C1` [Compound 157, (3S)-N-[2-cyano-3-[3-[(3R)-8-[2-[3-(2,4-dioxohexahydropyrimidin-1-yl)-5-fluoro-1-methyl-indazol-6-yl]-2-azaspiro[3.3]heptan-6-yl]-1-oxa-8-azaspiro[4.5]decan-3-yl]-4-oxo-quinazolin-6-yl]oxy-4-fluoro-phenyl]-3-methoxy-pyrrolidine-1-sulfonamide], for which the concentration at 6 h runs as follows: under setting [1], 2450 ± 217 ng/g; under setting [2], 12500 ± 745 ng/mL.
For `Cn1nc(N2CCC(=O)NC2=O)c2cc(F)c(N3CC4(CC(N5CCC6(CC5)C[C@@H](n5cnc7ccc(Oc8c(F)ccc(NS(=O)(=O)N9CC[C@@H](F)C9)c8C#N)cc7c5=O)CO6)C4)C3)cc21` [Compound 133, (3R)-N-[2-cyano-3-[3-[(3R)-8-[2-[3-(2,4-dioxohexahydropyrimidin-1-yl)-5-fluoro-1-methyl-indazol-6-yl]-2-azaspiro[3.3]heptan-6-yl]-1-oxa-8-azaspiro[4.5]decan-3-yl]-4-oxo-quinazolin-6-yl]oxy-4-fluoro-phenyl]-3-fluoro-pyrrolidine-1-sulfonamide], the concentration at 6 h is, setting by setting: under setting [1], 1910 ± 169 ng/g; under setting [2], 5070 ± 270 ng/mL.
